Experimental data published in patent publication US20190021380A1 (priority 2014, published 2019).
Counter-ions that a name gives are not always drawn.

target: cat T1R1/T1R3 receptor (Felis catus, UniProt E3UMS2); assay: cell-based; details: not given
Description: (§1) HEK293 cells that stably express T1R3 and inducibly express T1R1 were exposed to nucleotide derivatives alone or in combination with one or more amino acids and/or one or more nucleotides to activate the umami receptor. Activation of the T1R1/T1R3 receptor was detected by a change in intracellular calcium levels using a calcium sensitive fluorescent dye and/or a luminescent reporter system. Cells that express T1R3 but not T1R1 were used as a control. A FLIPR® Tetra or a FlexStation® 3 was used for data capture.

Compound	Activity	Thres	Threshold
Nc1ncnc2c1ncn2C1OC(COP(O)(O)=S)C(O)C1O (centres unmarked)	active	0.003 mM	–
O=C(Nc1ncnc2c1ncn2[C@@H]1O[C@H](COP(=O)(O)O)[C@@H](O)[C@H]1O)c1ccccc1	–	0.3 mM	–
Nc1ncnc2c1ccn2[C@H]1O[C@@H](COP(=O)(O)O)[C@H](O)[C@@H]1O (stereo in doubt) [7-Deazaadenosine-5′-O-monophosphate]	–	0.188 mM	–
O=c1ccn([C@H]2O[C@@H](COP(=O)(O)O)[C@H](O)[C@@H]2O)c(=O)[nH]1 (stereo in doubt) [Uridine 5′-monophosphate disodium salt, reference compound]	–	3.000 mM	–
O=P(O)(O)OC[C@H]1O[C@@H](n2cnc3c2ncn2ccnc32)[C@H](O)[C@@H]1O [1,N6-Ethenoadenosine-5′-O-monophosphate]	–	0.010 mM	–
Nc1nc(Cl)c2ncn(C3OC(COP(=O)(O)O)C(O)C3O)c2n1 (centres unmarked) [2-amino-6-chloropurineriboside-5′-O-monophosphate]	active	0.00013 mM	0.00013 mM
O=P(O)(O)OC[C@H]1O[C@@H](n2cnc3c2ncn2ccnc32)C[C@@H]1O [2′-Deoxy-1,N6-ethenoadenosine-5′-O-monophosphate]	–	0.05 mM	–

same assay, conditions: EC50 (mM), + Alanine (20 mM), Table 15

Compound	EC50
O=C(Nc1ncnc2c1ncn2[C@@H]1O[C@H](COP(=O)(O)O)[C@@H](O)[C@H]1O)c1ccccc1	> 1 mM
O=c1ccn(C2OC(COP(=O)(O)N3CCOCC3)C(O)C2O)c(=O)[nH]1 (centres unmarked)	> 3 mM

same assay, conditions: EC50-with Ala (mM)

Compound	EC50
NC(=O)c1ncn(C2OC(COP(=O)(O)O)C(O)C2O)c1N (centres unmarked)	> 1 mM
O=c1ccn([C@H]2O[C@@H](COP(=O)(O)O)[C@H](O)[C@@H]2O)c(=O)[nH]1 (stereo in doubt) [Uridine 5′-monophosphate disodium salt]	> 30 mM

same assay, conditions: EC50-with Ala (mM), in the presence of 20 mM alanine

Compound	EC50
O=P(O)(O)OCC1OC(n2cnc3c(Nc4ccccc4)ncnc32)C(O)C1O (centres unmarked)	> 1 mM

same assay, conditions: hek293 cells

Compound	Max resp % of IMP
Nc1ncnc2c1ncn2C1OC(COP(O)(O)=S)C(O)C1O (centres unmarked)	128.4 % of IMP
O=C(Nc1ncnc2c1ncn2[C@@H]1O[C@H](COP(=O)(O)O)[C@@H](O)[C@H]1O)c1ccccc1	105.6 % of IMP

same assay, conditions: in the presence of 20 mM alanine; read-out: EC50-with Ala

Compound	EC50
NC1NC(=O)c2ncn([C@H]3O[C@@H](COP(=O)(O)O)[C@H](O)[C@@H]3O)c2N1 (some centres unmarked)	0.03 mM
O=P(O)(O)OC[C@H]1O[C@@H](n2cnc3c2ncn2ccnc32)C[C@@H]1O [2′-Deoxy-1,N6-ethenoadenosine-5′-O-monophosphate]	0.2 mM

same assay, conditions: in the presence of alanine, in words

Compound	function as activators of T1R1/T1R3
2′-, 3′-O—(N′-methylanthraniloyl)guanosine-5′-O-monophosphate	activators of T1R1/T1R3

target: T1R1/T1R3 receptor (Felis catus, UniProt E3UMS2); assay: cell-based; type: cell-based; details: not given
Description: as §1, with “transmembrane compounds” for “nucleotide derivatives”, “dye.” for “dye and/or a luminescent reporter system.”
In each experiment, serial dilutions of up to 10 mM of the transmembrane compound were added to the T1R1/T1R3-expressing cells.

Compound	EC50
CCCC(C)NC(=O)/C=C/c1ccc(OC)c(OC)c1 (centres unmarked) [(E)-3-(3,4-dimethoxyphenyl)-N-(pentan-2-yl)acrylamide]	> 10 mM
CCOC(=O)C(NC(=O)c1ccc2c(c1)OCO2)C(C)C (centres unmarked) [ethyl 2-(benzo[d][1,3]dioxole-5-carboxamido)-3-methylbutanoate]	> 10 mM

same assay, conditions: EC50 (mM) +IMP (0.2 mM), in the presence of 0.2 mM IMP

Compound	EC50
CCCC(C)NC(=O)/C=C/c1ccc(OC)c(OC)c1 (centres unmarked) [(E)-3-(3,4-dimethoxyphenyl)-N-(pentan-2-yl)acrylamide]	2.2 mM
CCOC(=O)C(NC(=O)c1ccc2c(c1)OCO2)C(C)C (centres unmarked) [ethyl 2-(benzo[d][1,3]dioxole-5-carboxamido)-3-methylbutanoate]	> 3 mM

same assay, conditions: compound alone in buffer; read-out: EC50 (mM) +buffer (alone)

Compound	EC50
CCCC(C)NC(=O)/C=C/c1ccc(OC)c(OC)c1 (centres unmarked) [(E)-3-(3,4-dimethoxyphenyl)-N-(pentan-2-yl)acrylamide]	> 10 mM
CCOC(=O)C(NC(=O)c1ccc2c(c1)OCO2)C(C)C (centres unmarked) [ethyl 2-(benzo[d][1,3]dioxole-5-carboxamido)-3-methylbutanoate]	> 10 mM

same assay, conditions: in the presence of 0.2 mM IMP

Compound	Max resp ΔF/F +IMP (0.2 mM)	Thres (mM) +IMP (0.2 mM)
CCCC(C)NC(=O)/C=C/c1ccc(OC)c(OC)c1 (centres unmarked) [(E)-3-(3,4-dimethoxyphenyl)-N-(pentan-2-yl)acrylamide]	1.07	0.55 mM
CCOC(=O)C(NC(=O)c1ccc2c(c1)OCO2)C(C)C (centres unmarked) [ethyl 2-(benzo[d][1,3]dioxole-5-carboxamido)-3-methylbutanoate]	0.65	1 mM

same assay, conditions: in the presence of 0.2 mM IMP; relative to Ala

Compound	Max resp % of Ala +IMP (0.2 mM)
CCCC(C)NC(=O)/C=C/c1ccc(OC)c(OC)c1 (centres unmarked) [(E)-3-(3,4-dimethoxyphenyl)-N-(pentan-2-yl)acrylamide]	86.9%
CCOC(=O)C(NC(=O)c1ccc2c(c1)OCO2)C(C)C (centres unmarked) [ethyl 2-(benzo[d][1,3]dioxole-5-carboxamido)-3-methylbutanoate]	52.8%

same assay, conditions: in the presence of 20 mM alanine

Compound	Max resp ΔF/F +Alanine (20 mM)	Thres (mM) +Alanine (20 mM)
CCCC(C)NC(=O)/C=C/c1ccc(OC)c(OC)c1 (centres unmarked) [(E)-3-(3,4-dimethoxyphenyl)-N-(pentan-2-yl)acrylamide]	0.4375	1 mM
CCOC(=O)C(NC(=O)c1ccc2c(c1)OCO2)C(C)C (centres unmarked) [ethyl 2-(benzo[d][1,3]dioxole-5-carboxamido)-3-methylbutanoate]	0.3175	10 mM

same assay, conditions: in the presence of 20 mM alanine; relative to IMP

Compound	Max resp % of IMP +Alanine (20 mM)
CCCC(C)NC(=O)/C=C/c1ccc(OC)c(OC)c1 (centres unmarked) [(E)-3-(3,4-dimethoxyphenyl)-N-(pentan-2-yl)acrylamide]	35.2%
CCOC(=O)C(NC(=O)c1ccc2c(c1)OCO2)C(C)C (centres unmarked) [ethyl 2-(benzo[d][1,3]dioxole-5-carboxamido)-3-methylbutanoate]	25.6%
